# Reference: ChEMBL document CHEMBL6134828, “Discovery, synthesis, and biological mechanism evaluation of novel quinoline derivatives as potent NLRP3 inhibitors” (Eur J Med Chem, 2025)
# Active and inactive are the calls of the source. The rule behind the calls is not given here.
# Experiments:
# [1] = target: NACHT, LRR and PYD domains-containing protein 3 (Mus musculus, UniProt Q8R4B8); experiment: Inhibition of NLRP3 in mouse J774.A1 cells assessed as reduction IL-1beta release by ELISA; format: cell-based
# J774.A1 [2] = experiment: Effect on p65 level in LPS-induced mouse J774.A1 cells at 0.2 to 3.2 uM pre-incubated with compound for 2 hrs followed by LPS-induction and measured after 5 hrs by Western blot analysis; format: functional, cell-based; details: dose 0.2-3.2 µM, time 7.0 hrs
# Mus musculus [3] = experiment: Antiinflammatory activity against DSS-induced ulcerative colitis male C57BL/6 mouse model assessed as reduction in cleaved GSDMD level in colonic tissue at 7.5 to 30 mg/kg administered via oral gavage for 4 days by Western blot analysis; format: functional, organism-based; details: dose 7.5-30 mg/kg, time 4.0 day
# [4] = target: Nlrp3/Pycard (Mus musculus) (UniProt Q8R4B8+Q9EPB4); experiment: Inhibition of NLRP3/ASC protein-protein interaction in LPS/nigericin-induced mouse J774.A1 cells at 3 uM by coimmunoprecipitation analysis; format: cell-based
# J774.A1 [5] = experiment: Cytotoxicity against mouse J774.A1 cells at 0.4 to 6.4 uM incubated for 24 hrs by CCK-8 assay; format: toxicity, cell-based; details: j774.a1, 24 h, dose 0.4-6.4 µM
# [6] = target: T1, Apoptosis-associated speck-like protein containing a CARD (Mus musculus) (UniProt Q9EPB4); experiment: Inhibition of LPS/nigericin-induced ASC oligomerization in mouse J774.A1 cells at 0.8 to 3.2 uM by immunoblot analysis; format: cell-based; details: dose 0.8-3.2 µM
# T1 sequence (whole entry): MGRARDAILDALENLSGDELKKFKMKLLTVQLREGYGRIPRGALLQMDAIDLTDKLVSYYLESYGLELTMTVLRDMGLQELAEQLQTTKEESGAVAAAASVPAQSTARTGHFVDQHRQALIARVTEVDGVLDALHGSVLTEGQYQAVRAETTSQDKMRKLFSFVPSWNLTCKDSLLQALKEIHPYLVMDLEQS
# [7] = target: NLRP3-NEK7 (Mus musculus) (UniProt Q8R4B8+Q9ES74); experiment: Inhibition of NLRP3/NEK7 protein-protein interaction in LPS/nigericin-induced mouse J774.A1 cells incubated for 6 hrs by coimmunoprecipitation analysis; format: cell-based
# [8] = target: NACHT, LRR and PYD domains-containing protein 3 (Mus musculus) (UniProt Q8R4B8); experiment: Inhibition of NLRP3 inflammasome activation in LPS/nigericin-primed mouse BMDM cells assessed as inhibition of ASC speck formation incubated for 1 hr by DAPI staining based immunofluorescence analysis; format: cell-based
# Mus musculus [9] = experiment: In vivo inhibition of NLRP3 in colonic tissue of DSS-induced ulcerative colitis male C57BL/6 mouse model at 7.5 to 30 mg/kg administered via oral gavage for 4 days by Western blot analysis; format: functional, organism-based; details: dose 7.5-30 mg/kg, time 4.0 day
# [10] = target: NACHT, LRR and PYD domains-containing protein 3 (Mus musculus) (UniProt Q8R4B8); experiment: Inhibition of NLRP3 inflammasome activation in LPS/nigericin-induced mouse J774.A1 cells assessed as inhibition of GSDMD cleavage at 0.2 to 3.2 uM by Western blot analysis; format: cell-based; details: dose 0.2-3.2 µM
# Mus musculus [11] = experiment: Antiinflammatory activity against DSS-induced ulcerative colitis male C57BL/6 mouse model assessed as reduction in fecal blood index at 7.5 to 30 mg/kg administered via oral gavage for 4 days; format: functional, organism-based; details: dose 7.5-30 mg/kg, time 4.0 day
# [12] = target: NACHT, LRR and PYD domains-containing protein 3 (Mus musculus) (UniProt Q8R4B8); experiment: Inhibition of NLRP3 inflammasome activation in LPS/nigericin-induced mouse J774.A1 cells assessed as reduction in LDH level […]; format: cell-based; details: dose 0.2-3.2 µM
# Mus musculus [13] = experiment: Antiinflammatory activity against DSS-induced ulcerative colitis male C57BL/6 mouse model assessed as amelioration of mucosal ulceration in colonic tissue at 7.5 to 30 mg/kg administered via oral gavage for 4 days; format: functional, organism-based; details: dose 7.5-30 mg/kg, time 4.0 day
# Mus musculus [14] = experiment: Antiinflammatory activity against DSS-induced ulcerative colitis male C57BL/6 mouse model assessed as reduction in IL-1beta level in colonic tissue at 7.5 to 30 mg/kg administered via oral gavage for 4 days by ELISA; format: functional, organism-based; details: dose 7.5-30 mg/kg, time 4.0 day
# HEK-293T = experiment: Cytotoxicity against HEK293T cells at 0.4 to 6.4 uM incubated for 24 hrs by CCK-8 assay; format: toxicity, cell-based; details: human, dose 0.4-6.4 µM
# Mus musculus [15] = experiment: Antiinflammatory activity against DSS-induced ulcerative colitis male C57BL/6 mouse model assessed as amelioration of crypt loss in colonic tissue at 7.5 to 30 mg/kg administered via oral gavage for 4 days; format: functional, organism-based; details: dose 7.5-30 mg/kg, time 4.0 day
# [16] = target: NACHT, LRR and PYD domains-containing protein 3 (Mus musculus) (UniProt Q8R4B8); experiment: Inhibition of NLRP3 inflammasome activation in LPS/nigericin-induced mouse J774.A1 cells assessed as inhibition of caspase-1 p20 subunit formation at 0.2 to 3.2 uM by Western blot analysis; format: cell-based; details: dose 0.2-3.2 µM
# [17] = target: NACHT, LRR and PYD domains-containing protein 3 (Mus musculus) (UniProt Q8R4B8); experiment: Inhibition of NLRP3 inflammasome activation in LPS/nigericin-induced mouse J774.A1 cells assessed as inhibition of mature IL-1beta release at 0.2 to 3.2 uM by Western blot analysis; format: cell-based; details: dose 0.2-3.2 µM
# Mus musculus [18] = experiment: Antiinflammatory activity against DSS-induced ulcerative colitis male C57BL/6 mouse model assessed as reduction in caspase-1 level in colonic tissue at 7.5 to 30 mg/kg administered via oral gavage for 4 days by Western blot analysis; format: functional, organism-based; details: dose 7.5-30 mg/kg, time 4.0 day
# Mus musculus [19] = experiment: Effect on DSS-induced body weight loss in male C57BL/6 mouse model of ulcerative colitis at 7.5 to 30 mg/kg administered via oral gavage for 4 days; format: functional, organism-based; details: dose 7.5-30 mg/kg, time 4.0 day
# J774.A1 [20] = experiment: Effect on phosphorylated p65 level in LPS-induced mouse J774.A1 cells at 0.2 to 3.2 uM pre-incubated with compound for 2 hrs followed by LPS-induction and measured after 5 hrs by Western blot analysis; format: functional, cell-based; details: dose 0.2-3.2 µM, time 7.0 hrs
# Mus musculus [21] = experiment: Antiinflammatory activity against DSS-induced ulcerative colitis male C57BL/6 mouse model assessed as amelioration of epithelial damage in colonic tissue at 7.5 to 30 mg/kg administered via oral gavage for 4 days; format: functional, organism-based; details: dose 7.5-30 mg/kg, time 4.0 day
# [22] = target: NACHT, LRR and PYD domains-containing protein 3 (Mus musculus) (UniProt Q8R4B8); experiment: Inhibition of LPS/nigericin-induced NLRP3 oligomerization in mouse J774.A1 cells at 3.2 uM by SDS-PAGE analysis; format: cell-based
# J774.A1 [23] = experiment: Inhibition of NFkappaB signaling pathway in LPS-induced mouse J774.A1 cells assessed as reduction in IkappaBalpha phosphorylation at 3.2 uM pre-incubated with compound for 2 hrs followed by LPS-induction and measured after 5 hrs by Western blot analysis; format: cell-based; details: time 7.0 hrs
# [24] = target: NACHT, LRR and PYD domains-containing protein 3 (Mus musculus) (UniProt Q8R4B8); experiment: Inhibition of NLRP3 inflammasome activation in LPS/nigericin-induced mouse BMDM cells assessed as reduction in IL-1beta release by ELISA; format: cell-based; details: dose 0.125-4 µM
# J774.A1 [25] = experiment: Effect on TNF-alpha secretion in LPS-induced mouse J774.A1 cells at 0.2 to 3.2 uM pre-incubated with compound for 2 hrs followed by LPS-induction and measured after 5 hrs by ELISA; format: functional, cell-based; details: dose 0.2-3.2 µM, time 7.0 hrs
# [26] = target: NACHT, LRR and PYD domains-containing protein 3 (Mus musculus) (UniProt Q8R4B8); experiment: Inhibition of NLRP3 inflammasome activation in LPS/nigericin-induced mouse J774.A1 cells assessed as reduction in IL-1beta release by ELISA; format: cell-based; details: dose 0.125-4 µM
# Mus musculus [27] = experiment: Antiinflammatory activity against DSS-induced ulcerative colitis male C57BL/6 mouse model assessed as increase in colon length at 7.5 to 30 mg/kg administered via oral gavage for 4 days; format: functional, organism-based; details: dose 7.5-30 mg/kg, time 4.0 day
# NACHT, LRR and PYD domains-containing protein 3, sequence (Q8R4B8 whole entry, the tested form may be a part): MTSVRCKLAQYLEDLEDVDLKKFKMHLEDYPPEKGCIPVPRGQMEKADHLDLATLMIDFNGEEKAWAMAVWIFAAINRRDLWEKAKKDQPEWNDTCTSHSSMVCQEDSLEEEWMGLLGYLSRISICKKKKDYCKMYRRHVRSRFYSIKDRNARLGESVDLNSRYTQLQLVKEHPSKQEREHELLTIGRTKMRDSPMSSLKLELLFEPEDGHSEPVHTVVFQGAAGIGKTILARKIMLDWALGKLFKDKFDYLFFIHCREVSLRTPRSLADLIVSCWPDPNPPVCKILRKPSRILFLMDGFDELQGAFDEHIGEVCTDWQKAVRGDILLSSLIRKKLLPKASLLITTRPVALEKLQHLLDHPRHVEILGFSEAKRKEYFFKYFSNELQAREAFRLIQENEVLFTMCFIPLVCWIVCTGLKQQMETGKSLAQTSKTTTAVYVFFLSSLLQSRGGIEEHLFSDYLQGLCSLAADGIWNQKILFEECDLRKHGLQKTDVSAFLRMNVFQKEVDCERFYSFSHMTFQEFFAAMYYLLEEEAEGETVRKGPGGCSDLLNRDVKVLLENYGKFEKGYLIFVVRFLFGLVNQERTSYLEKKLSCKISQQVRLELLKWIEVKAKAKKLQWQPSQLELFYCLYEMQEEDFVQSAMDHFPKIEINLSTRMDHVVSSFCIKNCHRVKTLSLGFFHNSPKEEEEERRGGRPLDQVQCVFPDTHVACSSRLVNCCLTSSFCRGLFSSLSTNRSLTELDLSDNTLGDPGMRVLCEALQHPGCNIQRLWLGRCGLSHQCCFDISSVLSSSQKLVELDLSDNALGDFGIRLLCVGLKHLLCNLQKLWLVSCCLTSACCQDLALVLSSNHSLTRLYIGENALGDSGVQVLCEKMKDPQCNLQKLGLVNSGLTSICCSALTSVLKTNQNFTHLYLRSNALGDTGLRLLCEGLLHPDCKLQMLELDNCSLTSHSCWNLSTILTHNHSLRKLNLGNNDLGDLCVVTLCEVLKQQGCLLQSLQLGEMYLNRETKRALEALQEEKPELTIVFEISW
# NACHT, LRR and PYD domains-containing protein 3 (Mus musculus), sequence (Q8R4B8 whole entry, the tested form may be a part): as above
# NLRP3-NEK7 (Mus musculus), sequence (Q8R4B8 whole entry, looked up, the tested form may be a part): as the sequence (Q8R4B8 whole entry, the tested form may be a part) above
# NLRP3-NEK7 (Mus musculus), sequence (Q9ES74 whole entry, looked up, the tested form may be a part): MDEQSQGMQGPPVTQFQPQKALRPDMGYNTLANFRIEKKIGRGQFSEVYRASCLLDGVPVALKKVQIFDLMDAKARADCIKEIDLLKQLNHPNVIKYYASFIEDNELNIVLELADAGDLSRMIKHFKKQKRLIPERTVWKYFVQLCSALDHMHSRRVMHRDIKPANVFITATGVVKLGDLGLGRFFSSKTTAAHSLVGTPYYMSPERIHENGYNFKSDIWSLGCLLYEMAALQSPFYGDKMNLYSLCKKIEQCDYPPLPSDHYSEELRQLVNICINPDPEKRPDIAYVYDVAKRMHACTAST
# Nlrp3/Pycard (Mus musculus), sequence (Q8R4B8 whole entry, looked up, one chain of several): as the sequence (Q8R4B8 whole entry, the tested form may be a part) above
smiles,measurement,setting,value
CC[C@H](NC(=O)c1c(C)c(-c2cccc(F)c2)nc2ccc(Br)cc12)c1ccccc1,IC50,[1],1210 nM
CC[C@H](NC(=O)c1c(C)c(-c2cccc(F)c2)nc2ccc(F)cc12)c1ccccc1,IC50,[1],1360 nM
CC[C@H](NC(=O)c1c(C)c(-c2cccc(Cl)c2)nc2ccccc12)c1ccccc1,IC50,[1],890 nM
CSc1ccccc1NC(=O)c1cc(-c2ccccc2)nc2ccccc12,IC50,[1],3080 nM
CC[C@H](NC(=O)c1cc(-c2cccc(F)c2)nc2ccccc12)c1ccccc1,IC50,[1],2820 nM
CCN(CC)CCCC(C)NC(=O)c1cc(-c2ccccc2)nc2ccccc12 (stereo unspecified),IC50,[1],11400 nM
CC[C@H](NC(=O)c1c(C)c(-c2cccc(F)c2)nc2ccc(OC)cc12)c1ccccc1,IC50,[1],1040 nM
CC[C@@H](NC(=O)c1cc(-c2ccccc2)nc2ccccc12)c1ccccc1,IC50,[1],2080 nM
O=C(N[C@H]1CCc2ccccc21)c1cc(-c2ccccc2)nc2ccccc12,IC50,[1],4510 nM
CC[C@H](NC(=O)c1c(C)c(-c2ccc(C(F)(F)F)cc2)nc2ccccc12)c1ccccc1,IC50,[1],2750 nM
CC[C@H](NC(=O)c1c(C)c(-c2cccc(F)c2)nc2c(OC)cccc12)c1ccccc1,IC50,[1],1060 nM
O=C(Nc1ccccc1OCc1ccccc1)c1cc(-c2ccccc2)nc2ccccc12,IC50,[1],77000 nM
CC[C@H](NC(=O)c1c(C)c(-c2cccc(F)c2)nc2c(NC(C)=O)cccc12)c1ccccc1,IC50,[1],720 nM
CC[C@H](NC(=O)c1c(C)c(-c2cccc(F)c2)nc2ccc(Cl)cc12)c1ccccc1,IC50,[1],810 nM
CC[C@H](NC(=O)c1cc(C)nc2ccccc12)c1ccccc1,IC50,[1],85000 nM
CC[C@H](NC(=O)c1c(C)c(-c2cccc(F)c2)nc2c([N+](=O)[O-])cccc12)c1ccccc1,IC50,[1],180 nM
same,Activity,J774.A1 [2],No effect
same,Activity,Mus musculus [3],Active
same,inhibition,[4],Active
same,Activity,J774.A1 [5],Non-toxic
same,inhibition,[6],Active
same,inhibition,[7],inactive
same,inhibition,[8],Active
same,inhibition,Mus musculus [9],Active
same,inhibition,[10],Active
same,Activity,Mus musculus [11],Active
same,inhibition,[12],Dose-dependent-effect
same,Activity,Mus musculus [13],Active
same,Activity,Mus musculus [14],Active
same,Activity,HEK-293T,Non-toxic
same,Activity,Mus musculus [15],Active
same,inhibition,[16],Active
same,inhibition,[17],Active
same,Activity,Mus musculus [18],Active
same,Activity,Mus musculus [19],No effect
same,Activity,J774.A1 [20],No effect
same,Activity,Mus musculus [21],Active
same,inhibition,[22],Active
same,inhibition,J774.A1 [23],Active; Slight Inhibitory Effect On P-Ikappabalpha
same,inhibition,[24],Dose-dependent-effect
same,Activity,J774.A1 [25],No effect
same,inhibition,[26],Dose-dependent-effect
same,Activity,Mus musculus [27],Active
Cc1ccccc1CNC(=O)c1cc(-c2ccccc2)nc2ccccc12,IC50,[1],4310 nM
CCC(C)NC(=O)c1cc(-c2ccccc2)nc2ccccc12 (stereo unspecified),IC50,[1],39500 nM
CC[C@H](NC(=O)c1c(C)c(-c2ccc(F)cc2)nc2ccccc12)c1ccccc1,IC50,[1],1120 nM
CC[C@H](NC(=O)c1c(C)c(-c2cccc(F)c2)nc2cc(Br)ccc12)c1ccccc1,IC50,[1],920 nM
CC[C@H](NC(=O)c1c(C)c(-c2cccc(F)c2)nc2ccccc12)c1ccccc1,IC50,[1],590 nM
same,inhibition,[4],Active
same,Activity,J774.A1 [5],Non-toxic
same,inhibition,[6],Active
same,inhibition,[7],inactive
same,inhibition,[8],Active
same,inhibition,[22],Active
CC[C@H](NC(=O)c1ccnc2ccccc12)c1ccccc1,IC50,[1],126000 nM
CC[C@H](NC(=O)c1c(C)c(-c2cccc(F)c2)nc2ccc([N+](=O)[O-])cc12)c1ccccc1,IC50,[1],940 nM
O=C(NC1CC(F)(F)C1)c1cc(-c2ccccc2)nc2ccccc12,IC50,[1],5800 nM
CC[C@H](NC(=O)c1c(C)c(-c2cccc(F)c2)nc2cc(OC)ccc12)c1ccccc1,IC50,[1],1200 nM
CC[C@H](NC(=O)c1c(C)c(-c2cccc(F)c2)nc2c(Cl)cccc12)c1ccccc1,IC50,[1],710 nM
CC[C@H](NC(=O)c1cc(-c2ccccc2)nc2ccccc12)c1ccccc1 [AZD-7624],IC50,[1],1300 nM
O=C(NCCc1ccccc1)c1cc(-c2ccccc2)nc2ccccc12,IC50,[1],70400 nM
CC[C@H](NC(=O)c1c(C)c(-c2cccc(F)c2)nc2c(NS(=O)(=O)C3CC3)cccc12)c1ccccc1,IC50,[1],420 nM
CC[C@H](NC(=O)c1c(C)c(-c2cccc(F)c2)nc2cc(Cl)ccc12)c1ccccc1,IC50,[1],920 nM
COC(=O)[C@@H](NC(=O)c1cc(-c2ccccc2)nc2ccccc12)c1ccccc1,IC50,[1],3000 nM
CC[C@H](NC(=O)c1cc(Cl)nc2ccccc12)c1ccccc1,IC50,[1],84700 nM
O=C(Nc1ccccc1)c1cc(-c2ccccc2)nc2ccccc12,IC50,[1],2070 nM
Cc1ccc(O)cc1NC(=O)c1cc(-c2ccccc2)nc2ccccc12,IC50,[1],7070 nM
CC[C@H](NC(=O)c1c(C)c(-c2ccccc2)nc2ccccc12)c1ccccc1 [SB-222200],IC50,[1],1270 nM
CCN(CC)CCCC(C)Nc1ccnc2cc(Cl)ccc12 (stereo unspecified) [CHLOROQUINE],IC50,[1],87900 nM
O=C(N[C@@H]1CCc2ccccc21)c1cc(-c2ccccc2)nc2ccccc12,IC50,[1],7950 nM
Cc1ccccc1NC(=O)c1cc(-c2ccccc2)nc2ccccc12,IC50,[1],13800 nM
